According to patent US11306102B2, “1,3-di-substituted ketene compound and application thereof” (BEBETTER MED INC., priority 2017, dated 2022):

Columns and labels:
PPARα = target: T1, PPARα (Homo sapiens, UniProt Q07869); assay: Hela cell/luciferase reporter gene method, PPARα agonist activity; type: cell-based; settings: Hela cells, pPPRE3-TK-Luciferase reporter, 24 hrs incubation; read-out: agonistic activity on PPAα (EC50)
T1 construct: expressed in transfected cells; host or cells: Hela cells
T1 sequence (Q07869 1-468): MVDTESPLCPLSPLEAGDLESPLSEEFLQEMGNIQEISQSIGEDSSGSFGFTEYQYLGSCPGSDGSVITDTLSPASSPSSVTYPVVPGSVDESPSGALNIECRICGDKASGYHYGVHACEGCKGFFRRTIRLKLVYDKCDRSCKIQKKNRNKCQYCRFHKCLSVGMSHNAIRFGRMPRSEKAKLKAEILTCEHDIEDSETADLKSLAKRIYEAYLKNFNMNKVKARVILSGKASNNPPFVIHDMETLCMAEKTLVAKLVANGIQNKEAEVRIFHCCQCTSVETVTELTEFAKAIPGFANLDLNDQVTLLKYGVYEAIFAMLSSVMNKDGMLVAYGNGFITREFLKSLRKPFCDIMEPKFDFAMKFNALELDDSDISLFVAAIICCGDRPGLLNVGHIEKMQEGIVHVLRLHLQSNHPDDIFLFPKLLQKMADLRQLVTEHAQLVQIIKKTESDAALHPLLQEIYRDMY
Method: (§1) This example measures the biological activity of a PPAR agonist using the Hela cell/luciferase reporter gene method.
(§2) The target plasmids PCMV PPARα (Ampicillin+), PCMV PPARγ (Ampicillin+), PCMV PPARδ (Ampicillin+), and pPPRE3-TK-Luciferase (Ampicillin+) were introduced into DH5a competent cells by heat shock treatment, respectively. After being incubated for 1 hour at 37° C. with shaking (180 rpm), the cells were inoculated on LB agar solid medium containing antibiotic Ampicillin, and invertedly cultured at 37° C. for 12-16 hours. Then the monoclonal colony cultured on the medium was taken and inoculated into LB liquid medium for expanded culture. The desired plasmid was extracted from the resulting bacterial solution with a Plasmid Midi Kit (Qiagen; #12143). The plasmid obtained by centrifugation was suspended in TE buffer, and the plasmid concentration was measured and the mixture was stored at −20° C. Hela cells in the exponential phase were seeded in 6-well plates (8-10^5 cells/well), and after 6-8 hours of culture, the cells were transfected using Lipofectamine® 3000 Transfection Reagent (Invitrogen; #L3000015). A plasmid containing a PPAR binding site (peroxisome proliferator response element, PPRE) and a firefly luciferase gene (pPPRE3-TK-Luciferase) and PPAR expression vector were co-transfected into a Hela cell with a total amount of plasmid DNA of 2.5 ug (the mass ratio of each PPAR expression vector is pPPRE:PPARα=6:1, pPPRE:PPARδ=8:1, and pPPRE:PPARγ=2:1) to construct a drug screening cell model for PPAR agonists. PPAR was binded to the ligand and then binded to the peroxisome proliferator response element (PPRE), thereby initiating downstream firefly luciferase expression and its expression intensity was directly proportional to the degree of PPAR activation. The cells after 24 hours transfection were prepared into a cell suspension with a cell concentration of […] by a complete culture solution, and seeded into a 96-well plate with 100 ul per well. After overnight culture, the medium was changed to a medium containing 1% FBS. 10 mM candidate compound stock (1000×) were 4-fold diluted in DMSO for 8 points, then supplemented with medium containing 1% FBS to a final concentration of 50 uM (5×) by addition of 25 μl of 5× compound diluent to each well in different concentration gradients and incubated under 37° C., 5% CO2 incubator for 24 hrs. The 96-well plate was taken out and 30 μl of Bright-Glo™ Luciferase Assay System (Promega #E2620) was added to each well. The Luciferase luminescence intensity was measured by a SynergyH1 full-function microplate detector. The obtained data was used to calculate EC50 using GraphPad Prism 5.0 software to determine the biological activity of the compound.
(§3) The agonistic activity of the compounds synthesized in Examples 1-41 on PPAR is represented by EC50 (see Table 1). EC50 refers to the drug concentration at which the compound has a 50% increase in the agonistic activity of the measured PPAR. The compound numbers in Table 1 correspond to the compound numbers in Examples 1-41.

PPARδ = target: T2, PPARδ (Homo sapiens, UniProt Q03181); assay: Hela cell/luciferase reporter gene method, PPARδ agonist activity; type: cell-based; settings: Hela cells, pPPRE3-TK-Luciferase reporter, 24 hrs incubation; read-out: agonistic activity on PPARδ (EC50)
T2 construct: expressed in transfected cells; host or cells: Hela cells
T2 sequence (Q03181 1-441): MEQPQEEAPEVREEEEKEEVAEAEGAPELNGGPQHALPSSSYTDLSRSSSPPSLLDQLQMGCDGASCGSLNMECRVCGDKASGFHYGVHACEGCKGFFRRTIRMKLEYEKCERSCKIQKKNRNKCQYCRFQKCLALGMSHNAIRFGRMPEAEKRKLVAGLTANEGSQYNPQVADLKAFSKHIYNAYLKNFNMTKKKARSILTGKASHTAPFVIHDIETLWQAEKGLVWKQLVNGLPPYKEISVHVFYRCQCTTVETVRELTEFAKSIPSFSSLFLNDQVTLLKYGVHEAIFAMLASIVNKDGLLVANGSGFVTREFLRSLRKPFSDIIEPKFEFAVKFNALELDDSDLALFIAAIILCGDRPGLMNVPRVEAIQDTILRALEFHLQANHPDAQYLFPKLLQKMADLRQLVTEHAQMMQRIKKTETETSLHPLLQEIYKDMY
Method: as §1
as §2, with “The desired plasmid was extracted from the resulting bacterial solution with a Plasmid Midi Kit (Qiagen; #12143).” left out

PPARγ = target: T3, PPARγ (Homo sapiens, UniProt P37231); assay: Hela cell/luciferase reporter gene method, PPARγ agonist activity; type: cell-based; settings: Hela cells, pPPRE3-TK-Luciferase reporter, 24 hrs incubation; read-out: agonistic activity on PPARγ (EC50)
T3 construct: expressed in transfected cells; host or cells: Hela cells
T3 sequence (P37231 1-505): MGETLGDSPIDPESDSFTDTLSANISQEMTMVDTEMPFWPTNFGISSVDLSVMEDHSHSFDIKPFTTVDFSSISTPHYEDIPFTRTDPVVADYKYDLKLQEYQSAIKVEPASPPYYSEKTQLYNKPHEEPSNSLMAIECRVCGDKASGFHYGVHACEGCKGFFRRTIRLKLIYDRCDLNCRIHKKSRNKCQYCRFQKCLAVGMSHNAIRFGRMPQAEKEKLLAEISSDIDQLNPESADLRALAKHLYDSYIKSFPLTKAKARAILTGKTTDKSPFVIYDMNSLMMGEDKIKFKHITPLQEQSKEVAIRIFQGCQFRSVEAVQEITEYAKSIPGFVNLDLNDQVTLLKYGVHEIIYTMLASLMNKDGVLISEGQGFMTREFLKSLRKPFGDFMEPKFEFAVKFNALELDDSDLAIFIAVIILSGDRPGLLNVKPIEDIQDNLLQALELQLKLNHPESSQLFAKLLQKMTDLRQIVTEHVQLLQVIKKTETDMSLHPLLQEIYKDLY
Method: as §1, §2, §3

[1] = Pharmacokinetic (PK) experiments after intragastric administration in rats; type: in vivo, SD rats; settings: male, SD, rat, plasma, po, intragastric administration 20 mg/kg
Method: Male SD rats, weighing 250-300 grams, were fasted overnight before testing. The test compound was dissolved in 30% sulfobutyl-R-cyclodextrin (SBE-β-CD) and administered intragastrically at a dose of 20 mg/kg. Blood was collected 15 minutes, 30 minutes, and 1, 2, 3, 4, […] and 24 hours after the administration. About 0.3 ml of blood was collected at each time point, placed in a centrifuge tube containing K2-EDTA (dipotassium ethylenediamine tetraacetate) and centrifuged (2,000 g, 10 minutes, 4° C.) to take the plasma, which was stored in an ultra-low temperature refrigerator at −80° C. A 50 μL plasma sample was mixed with 5 μl of internal standard (IS) and extracted with ethyl acetate. The residue was redissolved in acetonitrile after drying under vacuum. The sample was filtered and injected into an LC-MS/MS for analysis.

Row | Structure (SMILES) | EC50 (PPARα) | EC50 (PPARγ) | other results
1 | CSc1ccc(C(=O)/C=C/c2cc(C)c(OC(C)(C)C(=O)O)c(C)c2)c2oc(C)cc12 [Compound 14, (E)-2-(2,6-dimethyl-4-(3-(2-methyl-4-(methylthio)benzofuran-7-yl)-3-oxoprop-1-en-1-yl)phenoxy)-2-methylpropanoic acid] | 156 nM | 122 nM | 
2 | CSc1ccc2cc(C(=O)/C=C/c3ccc(OC(C)(C)C(=O)O)cc3)oc2c1 [Compound 56, (E)-2-methyl-2-(4-(3-(6-(methylthio)benzofuran-2-yl)-3-oxoprop-1-en-1-yl)phenoxy)propanoic acid] | 83.9 nM | 1100 nM | 
3 | Cc1ccc2cc(C(=O)/C=C/c3cc(C)c(OC(C)(C)C(=O)O)c(C)c3)oc2c1 [Compound 50, (E)-2-(2,6-dimethyl-4-(3-(6-methylbenzofuran-2-yl)-3-oxoprop-1-en-1-yl)phenoxy)-2-methylpropanoic acid] | 123 nM | 167 nM | 
4 | COc1ccc(C(=O)/C=C/c2cc(C)c(OC(C)(C)C(=O)O)c(C)c2)c2occc12 [Compound 1, (E)-2-(4-(3-(4-methoxybenzofuran-7-yl)-3-oxoprop-1-en-1-yl)-2,6-dimethylphenoxy)-2-methylpropanoic acid] | 420 nM | 172 nM | 
5 | CSc1ccc(C(=O)/C=C/c2ccc(OC(C)(C)C(=O)O)cc2)c2occc12 [Compound 12, (E)-2-methyl-2-(4-(3-(4-(methylthio)benzofuran-7-yl)-3-oxoprop-1-en-1-yl)phenoxy)propanoic acid] | 99.8 nM | 279 nM | 

The next lines start with results.

Row | EC50 (PPARα) | EC50 (PPARγ) | Structure (SMILES) | other results
6 | > 10000 nM |  | Cc1cc(/C=C/C(=O)c2ccc3sccc3c2)cc(C)c1OC(C)(C)C(=O)O [Compound 38, (E)-2-(4-(3-(benzo[b]thiophen-5-yl)-3-oxoprop-1-en-1-yl)-2,6-dimethylphenoxy)-2-methylpropanoic acid] | EC50 (PPARδ): 838 nM
7 | 453 nM | 577 nM | Cc1cc(/C=C/C(=O)c2cccc3ccoc23)cc(C)c1OC(C)(C)C(=O)O [Compound 3, (E)-2-(4-(3-(benzofuran-7-yl)-3-oxoprop-1-en-1-yl)-2,6-dimethylphenoxy)-2-methylpropanoic acid] | 
8 | 29.2 nM | 86.6 nM | CSc1ccc(C(=O)/C=C/c2cc(C)c(OC(C)(C)C(=O)O)c(C)c2)cc1 [Elafibranor, reference compound] | AUC(0-inf) [1]: 1350 ng·h/mL; AUC(0-t) [1]: 1350 ng·h/mL; Cmax [1]: 1140 ng/mL; Tmax [1]: 19.8 min; half-life ([1]; read-out: Terminal T1/2 (converted)): 49.2 min
